Laboratory results published in PMC10821600 (The Journal of Biological Chemistry, 2023).
Read-outs that look alike come from different tables or passages of the source. No end group written: not given here.

Experiments:
mouse NaV1.7 = mouse NaV1.7 (Mus musculus, UniProt Q62205); assay: cell-based; conditions: SEM
human NaV1.7 = human NaV1.7 (Homo sapiens, UniProt Q15858); assay: cell-based; conditions: SEM
human NaV1.6 = human NaV1.6 (Homo sapiens, UniProt Q9UQD0); assay: cell-based; conditions: SEM
human NaV1.8 = human NaV1.8 (Homo sapiens, UniProt Q9Y5Y9); assay: cell-based
human NaV1.9 = human NaV1.9 (Homo sapiens, UniProt Q9UI33); assay: cell-based
C57BL/6J mice = conditions: mouse, in vivo
blowflies (L. caesar) = test system: blowflies (L. caesar); set-up: species or system Lucilia caesar; conditions: in vivo
human erythrocytes = conditions: red cells of human, 1 h
HEK293 cells = conditions: 1 h

human NaV1.8, sequence (Q9Y5Y9 whole entry): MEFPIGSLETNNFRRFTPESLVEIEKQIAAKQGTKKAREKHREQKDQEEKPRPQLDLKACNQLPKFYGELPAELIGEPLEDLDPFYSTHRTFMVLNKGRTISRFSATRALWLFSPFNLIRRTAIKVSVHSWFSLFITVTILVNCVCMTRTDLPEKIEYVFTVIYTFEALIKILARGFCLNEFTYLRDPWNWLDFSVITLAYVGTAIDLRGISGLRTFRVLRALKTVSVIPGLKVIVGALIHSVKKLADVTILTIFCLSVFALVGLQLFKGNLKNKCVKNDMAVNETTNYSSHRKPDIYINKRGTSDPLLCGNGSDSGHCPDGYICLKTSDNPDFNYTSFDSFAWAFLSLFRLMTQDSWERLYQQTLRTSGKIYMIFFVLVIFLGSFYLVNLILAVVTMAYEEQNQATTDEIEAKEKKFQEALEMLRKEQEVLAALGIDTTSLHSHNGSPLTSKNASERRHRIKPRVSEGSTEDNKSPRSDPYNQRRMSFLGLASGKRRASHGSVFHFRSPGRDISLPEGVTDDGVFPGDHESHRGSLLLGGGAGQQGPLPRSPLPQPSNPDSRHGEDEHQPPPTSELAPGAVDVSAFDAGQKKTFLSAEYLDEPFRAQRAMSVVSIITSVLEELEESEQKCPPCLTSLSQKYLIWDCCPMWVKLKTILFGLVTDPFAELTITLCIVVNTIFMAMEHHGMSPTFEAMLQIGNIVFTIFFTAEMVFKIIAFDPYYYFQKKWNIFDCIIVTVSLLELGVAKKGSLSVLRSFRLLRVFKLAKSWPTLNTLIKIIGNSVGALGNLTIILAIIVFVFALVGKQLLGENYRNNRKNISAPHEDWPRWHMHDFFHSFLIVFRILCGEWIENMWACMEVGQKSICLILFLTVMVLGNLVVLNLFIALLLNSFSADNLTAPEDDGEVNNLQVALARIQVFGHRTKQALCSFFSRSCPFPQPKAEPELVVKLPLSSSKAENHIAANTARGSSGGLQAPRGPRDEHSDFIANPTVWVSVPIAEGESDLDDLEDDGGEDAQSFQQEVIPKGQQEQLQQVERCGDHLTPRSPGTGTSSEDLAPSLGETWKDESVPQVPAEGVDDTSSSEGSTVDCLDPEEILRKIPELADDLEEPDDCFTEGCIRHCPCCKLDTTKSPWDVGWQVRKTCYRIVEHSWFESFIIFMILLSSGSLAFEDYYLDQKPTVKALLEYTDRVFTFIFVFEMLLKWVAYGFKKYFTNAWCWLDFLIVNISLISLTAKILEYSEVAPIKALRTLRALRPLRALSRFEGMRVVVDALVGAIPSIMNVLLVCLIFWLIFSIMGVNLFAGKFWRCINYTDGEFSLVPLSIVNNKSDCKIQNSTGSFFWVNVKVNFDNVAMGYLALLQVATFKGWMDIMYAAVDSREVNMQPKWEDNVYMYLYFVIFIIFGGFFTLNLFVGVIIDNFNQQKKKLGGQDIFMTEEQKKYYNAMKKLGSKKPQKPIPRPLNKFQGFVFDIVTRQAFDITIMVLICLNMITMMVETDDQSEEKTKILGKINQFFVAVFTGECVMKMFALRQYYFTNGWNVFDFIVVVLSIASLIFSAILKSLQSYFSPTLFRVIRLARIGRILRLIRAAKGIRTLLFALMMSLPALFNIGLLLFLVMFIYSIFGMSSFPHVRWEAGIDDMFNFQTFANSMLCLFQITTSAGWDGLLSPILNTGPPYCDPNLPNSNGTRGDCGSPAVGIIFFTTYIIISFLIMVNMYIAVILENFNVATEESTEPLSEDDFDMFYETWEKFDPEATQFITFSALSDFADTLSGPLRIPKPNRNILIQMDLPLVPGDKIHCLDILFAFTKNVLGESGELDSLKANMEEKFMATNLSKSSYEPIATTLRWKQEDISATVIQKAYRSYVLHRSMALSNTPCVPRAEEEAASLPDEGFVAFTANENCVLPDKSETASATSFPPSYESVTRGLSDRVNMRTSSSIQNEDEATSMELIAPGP
human NaV1.9, sequence (Q9UI33 whole entry): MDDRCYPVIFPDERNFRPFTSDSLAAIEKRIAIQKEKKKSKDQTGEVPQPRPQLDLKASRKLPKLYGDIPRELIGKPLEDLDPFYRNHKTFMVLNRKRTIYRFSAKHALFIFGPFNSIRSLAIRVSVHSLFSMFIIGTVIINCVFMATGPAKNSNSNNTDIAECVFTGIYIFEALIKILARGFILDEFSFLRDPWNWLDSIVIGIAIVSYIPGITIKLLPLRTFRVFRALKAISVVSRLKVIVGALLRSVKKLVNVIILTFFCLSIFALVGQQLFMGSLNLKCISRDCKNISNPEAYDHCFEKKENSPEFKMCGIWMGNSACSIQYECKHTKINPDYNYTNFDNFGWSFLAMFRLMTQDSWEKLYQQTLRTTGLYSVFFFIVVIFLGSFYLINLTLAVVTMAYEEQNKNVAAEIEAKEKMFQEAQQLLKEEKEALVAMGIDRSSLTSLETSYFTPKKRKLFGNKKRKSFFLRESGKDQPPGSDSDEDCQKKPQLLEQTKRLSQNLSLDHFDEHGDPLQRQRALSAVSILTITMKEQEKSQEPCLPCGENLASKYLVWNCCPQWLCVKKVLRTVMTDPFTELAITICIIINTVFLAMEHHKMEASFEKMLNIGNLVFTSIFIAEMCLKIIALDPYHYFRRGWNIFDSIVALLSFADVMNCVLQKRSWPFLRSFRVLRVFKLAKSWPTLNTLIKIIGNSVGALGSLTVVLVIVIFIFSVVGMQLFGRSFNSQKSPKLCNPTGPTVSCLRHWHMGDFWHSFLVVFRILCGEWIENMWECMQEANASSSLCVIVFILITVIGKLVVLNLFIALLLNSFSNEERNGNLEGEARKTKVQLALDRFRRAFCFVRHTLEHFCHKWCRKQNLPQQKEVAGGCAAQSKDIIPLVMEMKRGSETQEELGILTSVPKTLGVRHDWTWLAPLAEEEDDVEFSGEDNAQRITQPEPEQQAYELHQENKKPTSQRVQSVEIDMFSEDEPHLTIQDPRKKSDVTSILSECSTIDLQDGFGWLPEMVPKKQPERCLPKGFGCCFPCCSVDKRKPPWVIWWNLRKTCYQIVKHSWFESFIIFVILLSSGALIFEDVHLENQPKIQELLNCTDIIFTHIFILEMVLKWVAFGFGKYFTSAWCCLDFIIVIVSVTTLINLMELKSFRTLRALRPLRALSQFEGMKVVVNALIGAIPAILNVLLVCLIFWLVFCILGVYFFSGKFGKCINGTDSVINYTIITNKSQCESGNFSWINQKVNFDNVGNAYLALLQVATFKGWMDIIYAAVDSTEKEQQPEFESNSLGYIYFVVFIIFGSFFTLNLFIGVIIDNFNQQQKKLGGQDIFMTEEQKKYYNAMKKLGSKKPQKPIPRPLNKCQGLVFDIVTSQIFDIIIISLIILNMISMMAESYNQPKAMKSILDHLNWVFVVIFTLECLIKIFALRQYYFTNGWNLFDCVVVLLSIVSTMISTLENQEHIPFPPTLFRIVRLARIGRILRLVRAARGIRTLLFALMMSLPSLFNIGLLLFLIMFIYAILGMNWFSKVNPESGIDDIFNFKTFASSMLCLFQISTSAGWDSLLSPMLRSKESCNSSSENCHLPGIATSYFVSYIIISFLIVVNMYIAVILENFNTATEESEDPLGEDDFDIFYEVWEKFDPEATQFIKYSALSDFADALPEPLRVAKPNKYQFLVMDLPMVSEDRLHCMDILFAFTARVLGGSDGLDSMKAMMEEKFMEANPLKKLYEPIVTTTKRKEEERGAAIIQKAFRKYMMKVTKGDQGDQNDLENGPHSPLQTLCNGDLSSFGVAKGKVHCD

Substance | EC50 (mouse NaV1.7) | EC50 (human NaV1.7) | EC50 (human NaV1.6) | EC50 (human NaV1.8) | EC50 (human NaV1.9) | EC50 (human NaV1.8; SEM) | spontaneous nocifensive behaviors in mice (C57BL/6J mice) | kind of paralysis in blowflies (blowflies (L. caesar)) | reversibility of paralysis in blowflies (blowflies (L. caesar)) | median paralytic dose PD50[1 h] (blowflies (L. caesar); SEM) | median hemolytic concentration (HC50) (human erythrocytes) | median cytotoxic concentration (CC50) (HEK293 cells)
GLPLLALLFSLPVLQHWIEKNWIN-NH2 [Pm1a] | 352 ± 58 nM | 403 ± 96 nM | 285 ± 47 nM | > 10000 nM | > 1000 nM | – | – | – | – | – | – | –
ALPALPLLMFLFTLPALQHWIEKNWIN-NH2 [Pm2a] | 102 ± 18 nM | 154 ± 17 nM | 176 ± 56 nM | – | < 1000 nM | 2600 ± 700 nM | – | – | – | – | – | –
GIFSALKTLGKILLPVILPTVAEKIKEKV-NH2 [Pm6a] | – | – | – | – | – | – | did not cause nociception in mice | rapid paralysis | irreversible | 9.9 ± 0.4 nmol/g | 618 ± 148 nM | 465 ± 359 nM
